The target in one assay is Estrogen receptor beta (Homo sapiens, UniProt Q92731). The experiment in a line: ERβ–SRC-3 coactivator interaction inhibitors, confirmation, orthogonal assay, biochemical, ELISA, streptavidin-HRP readout (AID 1060).
The next assay deals with T1, Estrogen receptor (Homo sapiens, UniProt P03372).
T1 sequence (P03372 whole entry): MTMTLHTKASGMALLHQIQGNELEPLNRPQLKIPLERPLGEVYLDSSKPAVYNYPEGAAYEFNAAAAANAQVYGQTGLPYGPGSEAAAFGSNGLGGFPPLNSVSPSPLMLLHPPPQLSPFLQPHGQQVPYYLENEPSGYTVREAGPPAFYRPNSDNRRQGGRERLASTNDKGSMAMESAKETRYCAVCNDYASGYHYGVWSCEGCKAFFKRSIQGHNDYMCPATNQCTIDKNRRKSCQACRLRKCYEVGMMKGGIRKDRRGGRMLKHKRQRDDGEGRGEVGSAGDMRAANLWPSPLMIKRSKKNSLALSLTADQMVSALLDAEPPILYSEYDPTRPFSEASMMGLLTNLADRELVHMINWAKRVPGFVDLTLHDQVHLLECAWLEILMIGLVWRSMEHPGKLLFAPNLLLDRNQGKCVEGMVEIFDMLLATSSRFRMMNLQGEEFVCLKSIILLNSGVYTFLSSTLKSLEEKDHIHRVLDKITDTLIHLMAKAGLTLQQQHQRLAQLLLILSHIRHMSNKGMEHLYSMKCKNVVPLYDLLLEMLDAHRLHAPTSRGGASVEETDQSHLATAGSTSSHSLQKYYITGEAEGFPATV
Description: ERα–SRC-3 coactivator interaction inhibitors, confirmation, orthogonal assay, biochemical, ELISA, streptavidin-HRP readout (AID 1079). A general note: An ELISA detects its analyte on a solid surface through an enzyme-linked reagent.

A further assay addresses Mucolipin-3 (Homo sapiens, UniProt Q8TDD5). Description: Dose response cell-based high-throughput screening assay for agonists of the transient receptor potential channel ML3 (TRPML3). [Related pubchem assays: 1526, 1424, 1448 ]. The format is functional.
The target of the next assay is Ion channel NompC (Danio rerio, UniProt Q7T1G6). Description: Fluorescence counterscreen assay for TRPML3 agonists: dose response cell-based high-throughput screening assay to identify agonists of the transient receptor potential channel N1 (TRPN1). [Related pubchem assays: 1526, 1424, 1448 ]. Type of assay: functional. On the technique in general: A counterscreen serves to expose hits that act by an unwanted route or on another target.
Ion channel NompC, sequence (Q7T1G6 whole entry): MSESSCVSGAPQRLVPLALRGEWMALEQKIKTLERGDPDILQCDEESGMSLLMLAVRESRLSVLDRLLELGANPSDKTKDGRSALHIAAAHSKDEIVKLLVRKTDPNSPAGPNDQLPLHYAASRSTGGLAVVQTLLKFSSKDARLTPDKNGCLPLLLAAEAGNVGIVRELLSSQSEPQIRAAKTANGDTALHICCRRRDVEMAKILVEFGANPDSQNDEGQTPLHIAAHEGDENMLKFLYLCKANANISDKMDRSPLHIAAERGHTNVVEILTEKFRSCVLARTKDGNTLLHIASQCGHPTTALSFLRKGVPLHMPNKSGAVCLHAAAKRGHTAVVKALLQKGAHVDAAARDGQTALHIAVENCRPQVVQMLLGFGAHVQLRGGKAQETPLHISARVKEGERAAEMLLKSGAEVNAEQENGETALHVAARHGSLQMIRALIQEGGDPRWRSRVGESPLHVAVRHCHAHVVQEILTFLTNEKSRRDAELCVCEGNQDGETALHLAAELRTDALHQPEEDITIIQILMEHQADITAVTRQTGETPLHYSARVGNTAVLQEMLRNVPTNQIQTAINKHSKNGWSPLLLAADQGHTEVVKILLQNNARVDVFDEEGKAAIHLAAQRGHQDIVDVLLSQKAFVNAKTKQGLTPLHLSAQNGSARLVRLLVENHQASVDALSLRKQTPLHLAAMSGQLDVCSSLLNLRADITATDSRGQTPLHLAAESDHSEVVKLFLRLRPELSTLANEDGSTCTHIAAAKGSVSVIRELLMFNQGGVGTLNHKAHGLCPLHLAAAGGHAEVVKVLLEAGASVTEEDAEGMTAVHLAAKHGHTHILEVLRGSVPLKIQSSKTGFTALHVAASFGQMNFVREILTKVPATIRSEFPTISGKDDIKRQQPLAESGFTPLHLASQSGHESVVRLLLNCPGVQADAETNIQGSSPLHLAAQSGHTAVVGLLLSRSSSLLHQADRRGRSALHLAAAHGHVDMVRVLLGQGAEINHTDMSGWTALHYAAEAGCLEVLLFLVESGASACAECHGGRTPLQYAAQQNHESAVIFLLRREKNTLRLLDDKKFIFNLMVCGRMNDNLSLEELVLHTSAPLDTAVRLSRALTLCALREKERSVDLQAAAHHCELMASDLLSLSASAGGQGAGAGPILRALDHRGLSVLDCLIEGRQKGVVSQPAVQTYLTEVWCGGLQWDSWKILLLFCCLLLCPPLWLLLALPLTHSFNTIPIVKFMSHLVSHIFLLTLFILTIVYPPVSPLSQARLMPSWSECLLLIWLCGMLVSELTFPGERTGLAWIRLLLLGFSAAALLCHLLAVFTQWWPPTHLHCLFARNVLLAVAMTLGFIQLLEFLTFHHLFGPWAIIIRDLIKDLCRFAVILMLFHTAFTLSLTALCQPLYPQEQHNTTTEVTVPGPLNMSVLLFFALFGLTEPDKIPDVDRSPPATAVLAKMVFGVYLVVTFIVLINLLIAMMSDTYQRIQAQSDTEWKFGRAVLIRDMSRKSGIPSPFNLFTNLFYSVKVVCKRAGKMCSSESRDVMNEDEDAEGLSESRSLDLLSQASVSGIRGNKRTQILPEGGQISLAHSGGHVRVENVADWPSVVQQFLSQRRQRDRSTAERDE

The next assay has as its target Aspartyl aminopeptidase (Plasmodium falciparum 3D7, UniProt Q8I2J3). Description: Counterscreen for inhibitors of M1 and M17 aminopeptidases: QFRET-based biochemical high throughput dose response assay for inhibitors of the Plasmodium falciparum M18 Aspartyl Aminopeptidase (PFM18AAP). [Related PubChem assays: 1619 (Screening assay (M17LAP inhibitors).), 1445 (Screening assay (M1AAP inhibitors).)].

For the next assay, the target named is T2, Aminopeptidase N (Plasmodium falciparum FcB1/Columbia, UniProt O96935).
T2 sequence (O96935 whole entry): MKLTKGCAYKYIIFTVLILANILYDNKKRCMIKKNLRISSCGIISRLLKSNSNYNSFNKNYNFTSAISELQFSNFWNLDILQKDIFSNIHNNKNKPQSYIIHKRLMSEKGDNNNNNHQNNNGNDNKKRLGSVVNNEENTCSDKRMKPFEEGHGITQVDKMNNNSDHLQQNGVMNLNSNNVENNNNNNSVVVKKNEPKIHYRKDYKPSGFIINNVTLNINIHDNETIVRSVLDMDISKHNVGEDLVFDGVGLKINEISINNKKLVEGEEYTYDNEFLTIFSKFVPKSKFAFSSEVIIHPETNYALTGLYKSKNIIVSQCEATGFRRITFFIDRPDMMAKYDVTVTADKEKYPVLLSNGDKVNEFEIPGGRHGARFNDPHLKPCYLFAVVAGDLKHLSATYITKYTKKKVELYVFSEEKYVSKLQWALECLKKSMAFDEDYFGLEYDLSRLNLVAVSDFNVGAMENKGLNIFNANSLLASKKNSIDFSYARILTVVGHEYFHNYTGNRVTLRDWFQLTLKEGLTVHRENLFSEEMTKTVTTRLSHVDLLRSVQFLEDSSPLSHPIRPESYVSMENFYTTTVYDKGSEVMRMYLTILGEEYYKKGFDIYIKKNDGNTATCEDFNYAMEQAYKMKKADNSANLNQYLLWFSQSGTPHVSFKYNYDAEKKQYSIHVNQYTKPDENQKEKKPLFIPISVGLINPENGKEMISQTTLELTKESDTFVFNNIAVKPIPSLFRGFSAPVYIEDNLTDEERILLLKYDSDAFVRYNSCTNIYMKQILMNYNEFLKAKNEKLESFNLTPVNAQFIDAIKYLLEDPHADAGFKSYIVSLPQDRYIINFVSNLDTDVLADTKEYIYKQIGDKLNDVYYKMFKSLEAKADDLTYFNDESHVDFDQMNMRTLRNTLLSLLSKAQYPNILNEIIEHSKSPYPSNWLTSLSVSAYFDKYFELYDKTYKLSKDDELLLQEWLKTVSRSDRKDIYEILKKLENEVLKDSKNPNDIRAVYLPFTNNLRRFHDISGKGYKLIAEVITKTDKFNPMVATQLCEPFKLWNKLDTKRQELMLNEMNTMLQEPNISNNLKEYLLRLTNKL
The experiment in a line: P. falciparum M1AAP inhibitors, biochemical, fluorogenic H-Leu-NHMec substrate, 1536-well (AID 1445). Also on record: species or system Plasmodium falciparum 3D7, 3D7.

The next assay has as its target Procathepsin L (Homo sapiens, UniProt P07711). The experiment in a line: cathepsin L inhibitors, dose response, counter-screen for M1/M17 aminopeptidase inhibitor project, biochemical, QFRET, 1536-well (AID 2214).
A further assay deals with Vasopressin V1a receptor (Homo sapiens, UniProt P37288). Description: Fluorescence-based cell-based high throughput dose response screening assay for agonists of the vasopressin 1 receptor (V1R). Type of assay: functional.
Vasopressin V1a receptor, sequence (P37288 whole entry): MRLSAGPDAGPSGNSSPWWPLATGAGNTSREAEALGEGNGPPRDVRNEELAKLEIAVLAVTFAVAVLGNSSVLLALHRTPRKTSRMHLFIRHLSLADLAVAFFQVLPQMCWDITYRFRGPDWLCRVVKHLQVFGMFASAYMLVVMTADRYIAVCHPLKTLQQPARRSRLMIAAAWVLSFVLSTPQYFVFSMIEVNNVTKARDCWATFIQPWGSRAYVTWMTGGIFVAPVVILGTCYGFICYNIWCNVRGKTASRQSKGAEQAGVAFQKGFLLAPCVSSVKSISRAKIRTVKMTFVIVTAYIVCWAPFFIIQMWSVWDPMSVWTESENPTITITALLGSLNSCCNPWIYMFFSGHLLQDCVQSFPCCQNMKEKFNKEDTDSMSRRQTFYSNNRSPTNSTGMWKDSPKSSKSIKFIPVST
For another assay, the target named is Oxytocin receptor (Homo sapiens, UniProt P30559). The experiment in a line: Counterscreen for vasopressin 1 receptor (V1R) agonists: Fluorescence-based cell-based high throughput dose response assay for agonists of the Oxytocin Receptor (OXTR). [Related pubchem assays: 2435 (Primary screen (OXTR agonists in singlicate)), 434964 (Confirmation screen (V1R agonists in triplicate)), 434969 (Counterscreen (OXTR agonists in …. Type of assay: functional.
Oxytocin receptor, sequence (P30559 whole entry): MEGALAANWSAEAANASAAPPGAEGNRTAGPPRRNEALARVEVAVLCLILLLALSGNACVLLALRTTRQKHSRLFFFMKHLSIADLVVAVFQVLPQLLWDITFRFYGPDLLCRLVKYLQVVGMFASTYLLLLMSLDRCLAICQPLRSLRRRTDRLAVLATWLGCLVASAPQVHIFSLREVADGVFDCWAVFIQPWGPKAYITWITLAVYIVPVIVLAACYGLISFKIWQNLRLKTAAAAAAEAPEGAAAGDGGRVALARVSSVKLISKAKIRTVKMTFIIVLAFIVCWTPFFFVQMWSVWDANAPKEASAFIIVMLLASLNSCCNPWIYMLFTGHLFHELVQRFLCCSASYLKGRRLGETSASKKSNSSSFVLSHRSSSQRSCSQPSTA

The nature of assay [1]: M. tuberculosis H37Rv growth inhibitors, H37Rv strain (AID 1626). The format is functional.

Calls of active or inactive are those of the source.

Aspartyl aminopeptidase, sequence (Q8I2J3 whole entry): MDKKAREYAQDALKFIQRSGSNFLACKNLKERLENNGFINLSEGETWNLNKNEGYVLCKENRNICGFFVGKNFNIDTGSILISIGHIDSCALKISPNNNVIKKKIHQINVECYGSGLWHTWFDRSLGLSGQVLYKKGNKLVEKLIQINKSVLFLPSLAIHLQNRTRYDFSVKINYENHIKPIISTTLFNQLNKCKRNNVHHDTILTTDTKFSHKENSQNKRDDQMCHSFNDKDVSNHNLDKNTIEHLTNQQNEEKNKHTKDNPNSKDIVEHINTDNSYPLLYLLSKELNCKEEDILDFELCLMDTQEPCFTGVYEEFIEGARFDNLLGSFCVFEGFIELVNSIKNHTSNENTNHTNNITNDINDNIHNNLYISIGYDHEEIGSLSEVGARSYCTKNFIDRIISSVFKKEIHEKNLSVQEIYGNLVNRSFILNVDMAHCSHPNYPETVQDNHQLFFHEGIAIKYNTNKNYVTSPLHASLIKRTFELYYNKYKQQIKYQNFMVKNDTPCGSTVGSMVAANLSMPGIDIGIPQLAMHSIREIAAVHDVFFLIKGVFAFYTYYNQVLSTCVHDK
Estrogen receptor beta, sequence (Q92731 whole entry): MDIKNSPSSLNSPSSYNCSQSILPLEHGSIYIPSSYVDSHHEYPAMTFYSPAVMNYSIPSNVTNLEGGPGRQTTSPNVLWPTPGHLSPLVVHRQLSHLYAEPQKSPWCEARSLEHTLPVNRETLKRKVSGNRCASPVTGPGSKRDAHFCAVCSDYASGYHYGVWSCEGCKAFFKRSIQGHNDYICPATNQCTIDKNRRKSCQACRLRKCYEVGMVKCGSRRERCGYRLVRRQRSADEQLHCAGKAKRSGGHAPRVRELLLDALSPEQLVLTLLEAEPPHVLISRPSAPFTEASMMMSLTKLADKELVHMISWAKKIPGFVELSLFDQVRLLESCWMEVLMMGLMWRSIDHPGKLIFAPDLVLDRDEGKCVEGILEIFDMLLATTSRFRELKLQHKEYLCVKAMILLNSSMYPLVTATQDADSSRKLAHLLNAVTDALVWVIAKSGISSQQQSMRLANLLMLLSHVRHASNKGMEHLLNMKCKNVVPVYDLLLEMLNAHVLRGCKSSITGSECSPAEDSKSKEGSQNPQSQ
Mucolipin-3, sequence (Q8TDD5 whole entry): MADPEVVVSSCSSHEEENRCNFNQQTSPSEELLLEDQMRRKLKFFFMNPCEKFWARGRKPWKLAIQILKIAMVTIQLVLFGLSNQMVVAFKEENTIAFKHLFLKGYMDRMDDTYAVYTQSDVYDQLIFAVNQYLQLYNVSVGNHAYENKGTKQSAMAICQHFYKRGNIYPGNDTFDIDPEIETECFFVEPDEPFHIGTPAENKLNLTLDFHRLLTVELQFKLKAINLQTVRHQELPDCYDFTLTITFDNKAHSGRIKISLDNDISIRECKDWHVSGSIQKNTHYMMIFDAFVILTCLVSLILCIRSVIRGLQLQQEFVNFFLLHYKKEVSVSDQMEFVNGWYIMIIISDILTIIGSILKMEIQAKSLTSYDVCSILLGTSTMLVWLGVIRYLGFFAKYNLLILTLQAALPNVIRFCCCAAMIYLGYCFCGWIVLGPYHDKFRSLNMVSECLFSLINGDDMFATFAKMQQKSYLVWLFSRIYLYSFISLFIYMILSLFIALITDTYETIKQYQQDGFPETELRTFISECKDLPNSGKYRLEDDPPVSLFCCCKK
Procathepsin L, sequence (P07711 whole entry): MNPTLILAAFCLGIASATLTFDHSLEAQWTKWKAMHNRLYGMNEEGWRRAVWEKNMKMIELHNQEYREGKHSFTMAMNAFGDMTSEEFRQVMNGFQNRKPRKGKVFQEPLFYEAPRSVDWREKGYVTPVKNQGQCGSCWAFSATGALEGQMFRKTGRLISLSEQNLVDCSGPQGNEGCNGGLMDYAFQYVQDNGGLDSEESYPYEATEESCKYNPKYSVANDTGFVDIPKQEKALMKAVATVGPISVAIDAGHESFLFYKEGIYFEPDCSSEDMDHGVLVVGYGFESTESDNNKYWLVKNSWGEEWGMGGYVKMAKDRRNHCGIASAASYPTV

For the compound `N#Cc1ccccc1N1CCN(C(=O)CCCCCn2c(=S)[nH]c3ccccc3c2=O)CC1`, the IC50 is 0.957 µM (not active) on Estrogen receptor beta and 0.09 µM (not active) on Estrogen receptor.
On to `CCC(C(=O)Nc1cc(C)nn1-c1nc(C)cc(C)n1)c1ccccc1` (stereo not given), for which the EC50 at Mucolipin-3 and on Ion channel NompC was > 29.9 µM (not active) throughout.
For the compound `O=C(NCCC1=CCCCC1)C1CCN(S(=O)(=O)c2ccc(Br)s2)CC1`, the IC50 is > 73.5 µM (not active) at Aspartyl aminopeptidase, 13.2 µM (active) on Aminopeptidase N and > 59.6 µM (not active) against Procathepsin L.
In the case of `CC(NC(=O)Nc1ccc(Cl)c(Cl)c1)C(c1ccccc1)N1CCOCC1` (stereo not given), the results for the EC50 at Vasopressin V1a receptor and at Oxytocin receptor were 6.23 µM (active) and > 29.9 µM (not active), respectively.
Regarding `CCOC(=O)c1ccc(NC(=O)c2nnc(O)c3ccccc23)cc1`, the concentration for half-maximal inhibition (IC50) in [1] is > 100 µM (active).

What is called IC50 is the concentration at which inhibition is half-maximal. The term EC50 denotes the concentration giving half of the maximal effect.

(Values after ChEMBL document CHEMBL1201862, “PubChem BioAssay data set” (2004).)
